Data as given in PMC6348446 (Journal of Medicinal Chemistry, 2018).
Values after ≈ are worked out from the molar mass of the structure shown.

Tests used:
BRD7 = biological target: T1, BRD7 (Homo sapiens, UniProt Q9NPI1); assay: Western blot of BRD7 levels in HeLa cells after compound treatment; type: cell-based; conditions: 1 μM compound; for BRD7 degradation: HeLa cells
T1 construct: Western blot analysis of BRD9 and BRD7 levels after treatment of HeLa cells; endogenous in cells; host or cells: HeLa
T1 sequence (Q9NPI1 1-651): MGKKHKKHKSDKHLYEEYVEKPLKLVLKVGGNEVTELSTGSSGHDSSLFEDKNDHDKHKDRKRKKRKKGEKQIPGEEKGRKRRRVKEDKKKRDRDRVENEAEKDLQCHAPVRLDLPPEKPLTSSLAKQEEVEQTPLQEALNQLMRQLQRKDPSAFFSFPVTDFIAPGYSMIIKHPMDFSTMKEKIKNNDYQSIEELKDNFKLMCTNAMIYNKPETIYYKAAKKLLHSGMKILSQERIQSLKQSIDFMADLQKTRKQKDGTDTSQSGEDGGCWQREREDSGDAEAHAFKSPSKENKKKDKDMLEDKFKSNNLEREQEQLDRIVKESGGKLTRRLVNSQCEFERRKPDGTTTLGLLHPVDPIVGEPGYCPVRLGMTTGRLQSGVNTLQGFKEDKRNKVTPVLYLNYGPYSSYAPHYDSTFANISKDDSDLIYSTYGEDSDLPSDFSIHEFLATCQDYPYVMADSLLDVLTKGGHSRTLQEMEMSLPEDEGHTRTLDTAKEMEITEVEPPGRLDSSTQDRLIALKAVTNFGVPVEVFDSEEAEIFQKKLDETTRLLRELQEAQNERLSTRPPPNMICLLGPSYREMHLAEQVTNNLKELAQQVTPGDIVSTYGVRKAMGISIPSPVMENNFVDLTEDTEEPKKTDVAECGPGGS
Description: HeLa and Hek293 cells were seeded at either 0.3 × 10^6 or 0.5 × 10^6 cells per well in 6-well plate in 2 mL of medium. At 80% confluency, cells were treated with compounds at the desired concentration, with final DMSO concentration of 0.1% v/v. Cells were incubated at 37 °C and 5% of CO2 for the desired time before harvesting. For protein extraction from adherent cells, cells were washed twice with DPBS (Gibco) and lysed with RIPA buffer (Sigma-Aldrich), supplemented with cOmplete Mini EDTA-free protease inhibitor cocktail (Roche). Insoluble material was removed by centrifugation at 14 000 rpm for 15 min at 4 °C. Supernatant was collected and protein concentration was quantified by Bradford assay (Thermo Scientific no. 23200, mean of two replicates). For RI-1 cells, (1–1.5) × 10^6 cells/mL were seeded in 6-well plate in 2 mL of medium. The day after, cells were treated with compounds at the desired concentration, with final DMSO concentration of 0.1% v/v. Before harvesting, cells were incubated at 37 °C and 5% CO2 for the desired time. Cells were washed twice with DPBS (Gibco) and lysed with RIPA buffer (Sigma-Aldrich), supplemented with cOmplete Mini EDTA-free protease inhibitor cocktail (Roche). Lysates were sonicated (10 s) and centrifuged at 14 000 rpm for 20 min at 4 °C. Supernatant was collected, and protein concentration was quantified by Bradford assay (mean of two replicates). For EOL-1 and A-204 cell line, 20 000 cells were seeded in 300 μL per well in a 24-well plate and incubated at 37 °C overnight. Compounds were added from DMSO stock solution using a digital dispenser D300 (Tecan), normalizing for added DMSO, and cells were incubated at 37 °C for 18 h. Medium was removed, and cells were washed with PBS and lysed in 80 μL of lysis buffer (1% Triton, 350 mM KCl, 10 mM Tris, pH 7,4, phosphatase-protease inhibitor cocktail (Thermo Scientific no. 1861281), 10 mM DTT, Benzonase 0.5 μL/ml (Novagen no. 70746 10KU, 25 U/μL)) for 30 min on ice before insoluble debris was pelleted by centrifugation.
Proteins were resolved by SDS–PAGE on NuPage 4–12% Bis-Tris Midi Gel (Invitrogen) and transferred to Amersham Protran 0.45 NC nitrocellulose membrane (GE Healthcare) using wet transfer. The membrane was blocked with 5% w/v milk in Tris-buffered saline (TBS) with 0.1% w/v Tween-20. The following primary antibodies at the given concentration were used: anti β-actin (Cell Signaling Technology, 4970S, 13E5) 1:2000, anti-Brd9 (Bethyl A303-781A) 1:1000, anti-Brd7 (Bethyl A302-304A) 1:1000, VHL rabbit Ab (Cell Signaling Technology, no. 68547S) 1:1000, anti-CRBN (Novus Bio, NBP 1-9-1810) 1:1000, anti-actin hFAB rhodamine antibody, Bio-Rad, no. 12004164. Following incubation with horseradish peroxidase-conjugated secondary antibody (Cell Signaling Technology) or IRDye secondary antibody (Licor), bands were developed using Amersham ECL Prime Western blotting detection kit on Amersham Hyperfilm ECL film (Amersham) or ChemiDoc imaging system (Bio-Rad). ImageJ software was used for band quantification, and the last was reported as relative amount as ratio of each protein band relative to the lane’s loading control. Then the values obtained were normalized to 0.1% DMSO vehicle control. Alternatively, protein levels were determined on a WES capillary electrophoresis instrument (Proteinsimple) using a BRD9 antibody (Bethyl A303-781A) and a GAPDH antibody (Abcam no. ab9485) for normalization. DC50 and half-lives were determined by assuming a linear model between the two data points across 50% protein level mark.

[1] = Aqueous kinetic solubility by laser nephelometry; type: physicochemical; conditions: for solubility kinetic: MilliQ water with 2.5% DMSO
Description: The aqueous solubility of the test compounds was measured using laser nephelometry.
Compounds were subject to serial dilution from 10 mM to 0.5 mM in DMSO. An aliquot was then mixed with MilliQ water to obtain an aqueous dilution plate with a final concentration range of 250 – 12 µM, with a final DMSO concentration of 2.5%. Triplicate aliquots were transferred to a flat-bottomed polystyrene plate which was immediately read on the NEPHELOstar (BMG Lab Technologies). The amount of laser scatter caused by insoluble particulates (relative nephelometry units, RNU) was plotted against compound concentration using a segmental regression fit, with the point of inflection being quoted as the compounds

## COc1cc(-c2cn(C)c(=O)c3cnccc23)cc(OC)c1CN1CCN(CCOCCOCC(=O)N[C@H](C(=O)N2C[C@H](O)C[C@H]2C(=O)NCc2ccc(-c3scnc3C)cc2)C(C)(C)C)CC1 [Compound 5, (2S,4R)-1-((S)-2-(2-(2-(2-(4-(2,6-Dimethoxy-4-(2-methyl-1-oxo-1,2-dihydro-2,7-naphthyridin-4-yl)benzyl)piperazin-1-yl)ethoxy)ethoxy)acetamido)-3,3-dimethylbutanoyl)-4-hydroxy-N-(4-(4-methylthiazol-5-yl)benzyl)pyrrolidine-2-carboxamide]
BRD7; 4 h
  BRD7 degradation: at most 20%
BRD7; 16 h
  BRD7 degradation: ≤ 30%

## COc1cc(-c2cn(C)c(=O)c3cnccc23)cc(OC)c1CN1CCN(CCOCCOCCOc2cc(-c3scnc3C)ccc2CNC(=O)[C@@H]2C[C@@H](O)CN2C(=O)[C@@H](NC(=O)C2(F)CC2)C(C)(C)C)CC1 [Compound 26, (2S,4R)-N-(2-(2-(2-(2-(4-(2,6-Dimethoxy-4-(2-methyl-1-oxo-1,2-dihydro-2,7-naphthyridin-4-yl)benzyl)piperazin-1-yl)ethoxy)ethoxy)ethoxy)-4-(4-methylthiazol-5-yl)benzyl)-1-((S)-2-(1-fluorocyclopropane-1-carboxamido)-3,3-dimethylbutanoyl)-4-hydroxypyrrolidine-2-carboxamide]
BRD7; 4 h, Table 2, % of total protein remaining relative to 0.1% DMSO vehicle, HeLa cell lysates, read-out: BRD7 4 h (%)
  remaining activity at 1 µM: 97%

## COc1cc(-c2cn(C)c(=O)c3cnccc23)cc(OC)c1CN1CCN(CCCCCOc2cc(-c3scnc3C)ccc2CNC(=O)[C@@H]2C[C@H](O)CN2C(=O)[C@@H](NC(=O)C2(F)CC2)C(C)(C)C)CC1 [cisVZ185]
[1]
  solubility kinetic: 79 µM (≈ 78.6 µg/mL)

## COc1cc(-c2cn(C)c(=O)c3cnccc23)cc(OC)c1CN1CCN(CCCCCOc2cc(-c3scnc3C)ccc2CNC(=O)[C@@H]2C[C@@H](O)CN2C(=O)[C@@H](NC(=O)C2(F)CC2)C(C)(C)C)CC1 [Compound 51, (2S,4R)-N-(2-((5-(4-(2,6-Dimethoxy-4-(2-methyl-1-oxo-1,2-dihydro-2,7-naphthyridin-4-yl)benzyl)piperazin-1-yl)pentyl)oxy)-4-(4-methylthiazol-5-yl)benzyl)-1-((S)-2-(1-fluorocyclopropane-1-carboxamido)-3,3-dimethylbutanoyl)-4-hydroxypyrrolidine-2-carboxamide]
[1]; 2.5% DMSO, listed as VZ185
  Aqueous Solubility (Kinetic): ~100 µM
[1]
  solubility kinetic: 85 µM (≈ 84.6 µg/mL)
